Results: PMC11521309, “A novel 4-aminoquinoline chemotype with multistage antimalarial activity and lack of cross-resistance with PfCRT and PfMDR1 mutants” (PLOS Pathogens, 2024)
Several values for one entry are separate records, joined by “and”; a condition that tells them apart may be missing. Identical values can stand only once.

Key:
[1] = MTT cytotoxicity assay, 72 h; format: cell-based, monkey; settings: monkey, COS-7 cells; MTT, 72 h, N = 3
Procedure: (§1) Human hepatoma (HepG2) and fibroblast-like monkey kidney cells (COS-7) were cultured in Dulbecco’s Modified Eagle Medium supplemented with 10% heat-inactivated fetal bovine serum and gentamycin (40 mg/L) at 37°C in a 5% CO2 atmosphere. Cytotoxicity of test compounds was measured by metabolic reduction of mitochondrial enzymes using the MTT assay (3-[4,5-dimethyl-thiazol-2-yl]-2,5-diphenyltetrazolium chloride). Cells were seeded at 10^5 cells/well in 96-well plates and incubated for 72 hours in the presence of a 2-fold 12-point serial dilution of drugs along with drug-free controls. After adding 15 μL of MTT (5 mg/mL) to the wells, plates were centrifuged at 317g for 5 minutes and the pellet was resuspended in isopropanol. Absorbance was measured at 570 nm (CLARIOStar, Labtech BMG). Cell viability was determined by formazan production, and was expressed as a percentage of untreated control wells.

[2] = system: COS-7 cells; experiment: MTT cytotoxicity assay, 72 h; format: cell-based, monkey
Procedure: as §1

[3] = system: P. falciparum NF54-Pfs16-GFP-Luc stage IV-V gametocytes; experiment: Mature gametocyte (stages IV-V) viability, luciferase, 48 h; format: cell-based, Plasmodium falciparum; settings: 5 μM
Procedure: P. falciparum NF54-Pfs16-GFP-Luc (MRA-1217), a highly gametocyte-producing strain, was cultured following standard procedures. NF54-Luc ABS parasites were sorbitol-synchronized as previously described and cultured to reach 8–10% parasitemia as mature trophozoites prior to starting gametogenesis induction via nutrient deficit stress. Briefly, stress was induced by replacing only 40% of the culture medium and returning cultures to a 37°C incubation. Cultures were treated with 50 mM N-acetylglucosamine for 10 days to remove ABS parasites. Mature gametocytes (stages IV-V) were isolated using magnetic columns and incubated at 2% gametocytemia and 1.5% hematocrit in 96-well plates containing the test compounds for 48 hours at 37°C, following standard P. falciparum culturing conditions. Methylene blue was used as a gametocytocidal control alongside drug-free wells. Luciferase activity was assessed by adding 40 μL of luciferin substrate (Promega) to 40 μL of parasite lysates and detecting bioluminescence at an integration constant of 10s with the BioTek Cytation 5 Cell Imaging Multimode Reader.

[4] = system: P. berghei PbGFP-Luccon liver stage; experiment: In vitro inhibition of liver stage infection of Huh-7 cells, bioluminescence; format: cell-based, Plasmodium berghei
Procedure: (§2) In vitro inhibition of Plasmodium liver stage infection was assessed using bioluminescence data from Huh-7 cells infected with a firefly-luciferase-expressing P. berghei line, PbGFP-Luccon, in the presence of various compound concentrations. […] One day before drug treatment and infection, 10^4 Huh-7 cells/well were seeded in 96-well plates. The medium was then replaced by an infection medium (culture medium supplemented with 50 μg/mL gentamycin and 0.8 μg/mL amphotericin B) containing desired concentrations of test compounds. Fresh sporozoites recovered from salivary glands of infected female Anopheles stephensi mosquitoes were added to seeded Huh-7 cells at a 1:1 proportion, followed by centrifugation at 1700g for 5 minutes and incubation for 46 hours at 37°C under 5% CO2. Compound toxicity against Huh-7 cells was assessed by measuring […] using the Alamar Blue assay (Invitrogen). IC50 values were calculated using nonlinear regression analysis (GraphPad Prism version 9).

[5] = Host cell confluency, Alamar Blue; format: cell-based, human; settings: human, pH 7; maximum concentration of 4 μM; read-out: Huh-7 cell viability
Procedure: as §2

[6] = system: Huh-7 cells; experiment: Host cell confluency, Alamar Blue; format: cell-based, human
Procedure: as §2

[7] = system: pool of barcoded P. falciparum lines (Dd2 and 3D7 backgrounds); experiment: Resistome growth assay, pool of 51 barcoded lines; format: cell-based, Plasmodium falciparum; settings: 3 × IC50 constant, 14 days
Procedure: The resistome growth assay employs a parasite pool consisting of 51 barcoded lines including both Dd2 and 3D7 genetic backgrounds, with wild-type lines for both (S3 Table). Most lines used were derived from in vitro resistance selection experiments, with others having been CRISPR edited. All lines were barcoded via CRISPR editing of a 101bp barcode cassette into the non-essential pfpare locus (PF3D7_0709700). Parasites were cultured in RPMI-1640 medium supplemented with HEPES (5.94 g/L), NaHCO3 (2.1 g/L), glutamax (1×), hypoxanthine (50 mg/L), gentamycin ([…]), and AlbumaxII (5 g/L) at a […]. Parasite growth was monitored over 14 days by flow cytometry (Cytoflex, Beckman Coulter) by staining with 1× SYBR Green and 0.2 μM MitoTracker Deep Red. Parasitemia adjustments were made to maintain a healthy range of <5% parasitemia. Parasite cultures were harvested at day 14 and lysed by saponin (0.05%), with pellets washed twice with PBS. Barcodes were PCR amplified using 5 μL of parasite pellet and sequenced by Illumina amplicon sequencing.

[8] = 0.01 µM, Rep #1, Rep #2 singly, DMSO = 100
[9] = 0.10 µM, Rep #1, Rep #2 singly, DMSO = 100
[10] = 0.50 µM, Rep #1, Rep #2 singly, DMSO = 100
[11] = 1.00 µM, Rep #1, Rep #2 singly, DMSO = 100
[12] = 1.50 µM, Rep #2 only, DMSO = 100
[13] = 2.00 µM, Rep #1, Rep #2 singly, DMSO = 100
[14] = 3.00 µM, Rep #1, Rep #2 singly, DMSO = 100
[15] = 4.00 µM, Rep #1 only, DMSO = 100

## COc1cc2nccc(Nc3cccc(Oc4ccccc4)c3)c2cc1OC [LDT-623]
[1]
  CC50 at 72 h: 500 ± 100 nM
[2]
  SI (CC50 COS-7 / IC50 3D7): 3.8
[3]; mean, N = 3
  % Inhibition of viability, mature gametocytes: 62% and 61.67%
[3]; single replicates
  % Inhibition of viability, mature gametocytes: 78.00% and 67.00% and 40.00%
[4]; 0.01 µM, Average
  % Infection: 105.58%
[4]; [8]
  % Infection: 99.71% and 111.44%
[4]; 0.10 µM, Average
  % Infection: 109.90%
[4]; [9]
  % Infection: 116.90% and 102.90%
[4]; 0.50 µM, Average
  % Infection: 89.46%
[4]; [10]
  % Infection: 98.58% and 80.35%
[4]; 1.00 µM, Average
  % Infection: 47.89%
[4]; [11]
  % Infection: 59.84% and 35.94%
[4]; 1.50 µM, Average
  % Infection: 16.43%
[4]; [12]
  % Infection: 16.43%
[4]; 2.00 µM, Average
  % Infection: 10.50%
[4]; [13]
  % Infection: 13.79% and 7.22%
[4]; 3.00 µM, Average
  % Infection: 3.61%
[4]; [14]
  % Infection: 5.04% and 2.18%
[4]; 4.00 µM, Average
  % Infection: 3.01%
[4]; [15]
  % Infection: 3.01%
[4]; Plasmodium berghei, Huh-7, 1 μM, read-out: inhibition of hepatic infection
  inhibition at 1 µM: 52.1%
[4]; Plasmodium berghei, Huh-7 cells, P. berghei sporozoites, 48h, N = 2, read-out: IC50 hepatic stage infection
  IC50: 983 nM
[5]
  viability at 46 h, 4 µM: > 86%
[6]; 0.01 µM, Average
  % Confluency: 101.66%
[6]; [8]
  % Confluency: 99.85% and 103.48%
[6]; 0.10 µM, Average
  % Confluency: 101.70%
[6]; [9]
  % Confluency: 101.55% and 101.85%
[6]; 0.50 µM, Average
  % Confluency: 106.57%
[6]; [10]
  % Confluency: 104.91% and 108.24%
[6]; 1.00 µM, Average
  % Confluency: 99.74%
[6]; [11]
  % Confluency: 99.78% and 99.70%
[6]; 1.50 µM, Average
  % Confluency: 103.34%
[6]; [12]
  % Confluency: 103.34%
[6]; 2.00 µM, Average
  % Confluency: 99.65%
[6]; [13]
  % Confluency: 99.68% and 99.63%
[6]; 3.00 µM, Average
  % Confluency: 92.74%
[6]; [14]
  % Confluency: 93.69% and 91.80%
[6]; 4.00 µM, Average
  % Confluency: 86.71%
[6]; [15]
  % Confluency: 86.71%
[7]
  growth recovery of barcoded pool: no growth recovery
